Assay results taken from publication PMC8390754, “Engineering and functional characterization of a proton-driven β-lactam antibiotic translocation module for bionanotechnological applications” (Scientific Reports, 2021).

Tests used:
YePEPT [1] = target: T1, YePEPT (Yersinia enterocolitica, UniProt A0A2R9TD79); experiment: [3H]Ala-Ala uptake competition in E. coli at […]; format: cell-based; settings: read-out: % inhibition at 5 mM
T1 construct: gene YEP4_02370; wild-type
T1 sequence (A0A2R9TD79 1-511): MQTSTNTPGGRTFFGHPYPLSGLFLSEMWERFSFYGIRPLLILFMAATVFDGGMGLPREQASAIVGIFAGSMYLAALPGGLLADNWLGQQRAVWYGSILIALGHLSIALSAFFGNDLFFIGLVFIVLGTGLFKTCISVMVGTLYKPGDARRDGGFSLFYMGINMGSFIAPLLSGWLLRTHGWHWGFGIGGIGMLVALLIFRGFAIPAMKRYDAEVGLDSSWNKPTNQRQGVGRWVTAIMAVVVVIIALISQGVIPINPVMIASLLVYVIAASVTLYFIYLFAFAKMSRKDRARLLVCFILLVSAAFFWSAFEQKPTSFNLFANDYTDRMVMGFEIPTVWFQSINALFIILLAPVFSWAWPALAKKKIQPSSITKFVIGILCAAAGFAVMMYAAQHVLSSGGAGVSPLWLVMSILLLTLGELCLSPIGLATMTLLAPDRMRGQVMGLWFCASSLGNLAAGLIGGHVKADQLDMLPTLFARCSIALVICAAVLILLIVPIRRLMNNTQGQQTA

YePEPT [2] = target: T2, YePEPT (Yersinia enterocolitica, UniProt A0A2R9TD79, F311Y/K314A); experiment: SSM electrophysiology with proteoliposomes of purified transporter ([…]); also uptake inhibition in cells; format: biochemical
T2 construct: gene YEP4_02370

YePEPT [3] = target: T3, YePEPT (Yersinia enterocolitica, UniProt A0A2R9TD79, K314A); experiment: [3H]Ala-Ala uptake competition in E. coli at […]; format: cell-based
T3 construct: gene YEP4_02370

YePEPT [4] = target: T2, YePEPT; experiment: [3H]Ala-Ala uptake competition in E. coli overexpressing the transporter; transport confirmed by SSM electrophysiology in proteoliposomes; format: cell-based
[5] = test system: C[C@H](N)C(=O)N[C@@H](C)C(=O)O; experiment: radioligand uptake kinetics in E. coli; SSM electrophysiology in proteoliposomes; format: cell-based, Yersinia enterocolitica

CC1(C)S[C@@H]2[C@H](NC(=O)[C@H](N)c3ccccc3)C(=O)N2[C@H]1C(=O)O [compound 1, ampicillin]
inhibition at 5000 µM (YePEPT [1]): ~50%
% transported charge relative to Ala-Ala (YePEPT [2]): 9 % transported charge relative to Ala-Ala

CC1(C)S[C@@H]2[C@H](NC(=O)[C@H](N)c3ccc(O)cc3)C(=O)N2[C@H]1C(=O)O [compound 2, amoxicillin]
[3H]Ala-Ala uptake competition in E. coli at 5 mM (YePEPT [3]): YePEPT^K314A (Fig. 2c) showed a strong increase in affinity for amoxicillin and cefadroxil
inhibition at 5000 µM (YePEPT [1]): ~50%
IC50 (YePEPT [4]): 106 µM

CC1=C(C(=O)O)N2C(=O)[C@@H](NC(=O)[C@H](N)c3ccc(O)cc3)[C@H]2SC1 [compound 6, cefadroxil]
[3H]Ala-Ala uptake competition in E. coli at 5 mM (YePEPT [3]): YePEPT^K314A (Fig. 2c) showed a strong increase in affinity for amoxicillin and cefadroxil
IC50 (YePEPT [4]): 229 µM

CC=CC1=C(C(=O)O)N2C(=O)[C@@H](NC(=O)[C@H](N)c3ccc(O)cc3)[C@H]2SC1 [compound 7, cefprozil]
IC50 (YePEPT [4]): 32 µM

YePEPT (Yersinia enterocolitica subsp. palearctica YE-P4; F311Y/K314A)
Km [5]: 199 µM
